Laboratory results published in ChEMBL document CHEMBL5518235, “Identification of Novel Series of Potent and Selective Relaxin Family Peptide Receptor 1 (RXFP1) Agonists” (J Med Chem, 2024).

What was measured:
Relaxin receptor 1 = molecular target: T1, Relaxin receptor 1 (Homo sapiens, UniProt Q9HBX9); test: Agonist activity at human RXFP1 expressed in T-Rex-CHO-K1 cells assessed as stimulation of cAMP production incubated for 45 mins by HTRF assay; format: functional, cell-based
T1 sequence (Q9HBX9 whole entry): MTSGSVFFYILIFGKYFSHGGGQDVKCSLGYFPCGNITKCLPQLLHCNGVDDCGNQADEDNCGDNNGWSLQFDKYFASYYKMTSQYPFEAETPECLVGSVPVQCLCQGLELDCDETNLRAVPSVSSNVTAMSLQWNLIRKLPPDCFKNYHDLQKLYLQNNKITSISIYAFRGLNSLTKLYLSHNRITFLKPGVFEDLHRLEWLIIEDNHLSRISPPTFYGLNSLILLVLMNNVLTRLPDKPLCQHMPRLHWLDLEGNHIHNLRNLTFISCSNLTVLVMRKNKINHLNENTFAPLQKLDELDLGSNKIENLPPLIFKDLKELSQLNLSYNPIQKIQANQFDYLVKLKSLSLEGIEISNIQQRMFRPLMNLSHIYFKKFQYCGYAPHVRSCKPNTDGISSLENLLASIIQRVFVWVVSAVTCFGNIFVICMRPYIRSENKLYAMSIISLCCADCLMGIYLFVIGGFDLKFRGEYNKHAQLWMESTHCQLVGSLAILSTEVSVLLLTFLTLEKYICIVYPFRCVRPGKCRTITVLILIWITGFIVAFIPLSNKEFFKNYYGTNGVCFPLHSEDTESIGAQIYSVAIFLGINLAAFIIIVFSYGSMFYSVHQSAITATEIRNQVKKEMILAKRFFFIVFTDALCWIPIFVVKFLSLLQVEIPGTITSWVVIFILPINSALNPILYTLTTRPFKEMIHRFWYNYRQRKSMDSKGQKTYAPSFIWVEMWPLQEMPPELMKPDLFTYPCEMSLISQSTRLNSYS

[1] = molecular target: T2, Relaxin receptor 1 (Homo sapiens) (UniProt Q9HBX9); test: Agonist activity at human RXFP1 expressed in T-Rex-CHO-K1 cells assessed as stimulation of cAMP production by measuring maximal efficacy at 50 uM incubated for 45 mins by HTRF assay relative to control; format: functional, cell-based; details: filed as agonist
T2 sequence (whole entry): T1 sequence (Q9HBX9 whole entry)

[2] = Lipophilicity, logD of the compound in 1-octanol and phosphate buffer at pH 7.4 incubated for 3 hrs by shake flask method based LC/MS/MS analysis; format: physicochemical; details: 1-octanol/phosphate buffer, pH 7.4
[3] = Metabolic stability in cryopreserved human hepatocytes assessed as intrinsic clearance measured per 10^6 cells at 1 uM after 120 mins by LC-MS/MS analysis; format: ADME, cell-based, Hepatocyte; details: cryopreserved hepatocytes, read-out: CLH
[4] = Metabolic stability in cryopreserved human hepatocytes assessed as unbound intrinsic clearance measured per 10^6 cells at 1 uM measured after 120 mins by LC-MS/MS analysis; format: ADME, cell-based, Hepatocyte; details: 2 h
[5] = Metabolic stability in human liver microsomes assessed as unbound intrinsic clearance at 1 uM incubated for 30 mins in presence of NADPH by LC-MS/MS analysis; format: ADME, Microsome; details: 0.5 h
[6] = Metabolic stability in human liver microsomes assessed as intrinsic clearance at 1 uM incubated for 30 mins in presence of NADPH by LC-MS/MS analysis; format: ADME, Microsome; details: liver microsomes, read-out: CLH

Structure (SMILES) | EC50 (Relaxin receptor 1) | Emax [1] | logD at 3 h [2] | hepatocyte CLint at 1 µM [3] | CL free [4] | CL free [5] | microsomal CLint at 1 µM [6]
COc1cc(F)c(O[C@H]2CC[C@@H](C(=O)O)CC2)cc1C(=O)N[C@@H]1[C@H](C(=O)Nc2ccc(F)c(C(F)(F)F)c2)[C@H]2C=C[C@@H]1C2 | 2570 nM | 107% | 3.6 | 4.8 µL/min/1e6 cells | 42 µL/min |  | 
COc1cc(F)c(F)cc1C(=O)N[C@@H]1[C@H](C(=O)Nc2cccc(S(=O)(=O)C(F)(F)F)c2)[C@H]2C=C[C@@H]1C2 (racemic) | 794 nM | 109% | > 4.2 |  |  | > 25 10^3uL/min/mg | > 300 µL/min/mg
COc1cc(F)c(O[C@H]2CC[C@@H](C(=O)O)CC2)cc1C(=O)N[C@@H]1[C@H]2CC[C@H](C2)[C@@H]1C(=O)Nc1ccncc1 | > 50100 nM | 42% | 1.6 |  |  |  | 
COc1cc(F)ccc1C(=O)N[C@@H]1[C@H](C(=O)Nc2cccc(S(=O)(=O)C(F)(F)F)c2)[C@H]2C=C[C@@H]1C2 (racemic) | 1580 nM | 113% | > 3 |  |  | > 14 10^3uL/min/mg | > 300 µL/min/mg
COc1cc(F)c(OCCCC(=O)O)cc1C(=O)N[C@H]1[C@@H](C(=O)Nc2cccc(S(=O)(=O)C(F)(F)F)c2)[C@@H]2C=C[C@H]1C2 (racemic) | 1580 nM | 114% | 2.5 | 13 µL/min/1e6 cells | 51 µL/min |  | 
COc1cnc(-c2ccc(C(=O)O)cc2)cc1C(=O)N[C@H]1[C@@H](C(=O)Nc2cccc(S(=O)(=O)C(F)(F)F)c2)[C@@H]2C=C[C@H]1C2 (racemic) | 3980 nM | 117% | 2.3 |  |  | 19 µL/min/mg | 7 µL/min/mg
COc1cc(F)c(Oc2ccc(C(=O)O)cc2)cc1C(=O)N[C@H]1[C@@H](C(=O)Nc2cccc(S(=O)(=O)C(F)(F)F)c2)[C@@H]2C=C[C@H]1C2 (racemic) | 316 nM | 103% | 3.6 | 7.2 µL/min/1e6 cells | 480 µL/min |  | 
COc1cc(F)c(-c2ccccc2)cc1C(=O)N[C@@H]1[C@H](C(=O)Nc2cccc(S(=O)(=O)C(F)(F)F)c2)[C@H]2C=C[C@@H]1C2 (racemic) | 912 nM | 93% | > 3.9 |  |  | 92 10^3uL/min/mg | 110 µL/min/mg
COc1ccccc1C(=O)N[C@@H]1CCC[C@@H]1C(=O)Nc1cccc(S(=O)(=O)C(F)(F)F)c1 (racemic) | > 50100 nM | 74% | 4.9 |  |  | 2.4 10^3uL/min/mg | 174 µL/min/mg
COc1cc(F)c(O[C@H]2CC[C@@H](C(=O)O)CC2)cc1C(=O)N[C@H]1[C@@H](C(=O)Nc2ccc(F)c(S(=O)(=O)C(F)(F)F)c2)[C@@H]2C=C[C@H]1C2 | 15.8 nM | 114% |  | 7.5 µL/min/1e6 cells | 32 µL/min |  | 
COc1cc(F)c(O[C@H]2CC[C@@](C)(C(=O)O)CC2)cc1C(=O)N[C@@H]1CCC[C@@H]1C(=O)Nc1ccc(F)c(S(F)(F)(F)(F)F)c1 | 3.16 nM | 105% | 4.35 | 13 µL/min/1e6 cells | 283 µL/min |  | 
COc1cc(F)c(O[C@H]2CC[C@@](C)(C(=O)O)CC2)cc1C(=O)N[C@@H]1C[C@@H](OC)C[C@@H]1C(=O)Nc1cccc(S(=O)(=O)C(F)(F)F)c1 | 25.1 nM | 110% | 3 | 6.2 µL/min/1e6 cells | 26 µL/min |  | 
COc1cc(F)c(-c2ccc(C[C@H](C(=O)O)N(C)C)cc2)cc1C(=O)N[C@@H]1[C@H]2CC[C@H](C2)[C@@H]1C(=O)Nc1cccc(S(=O)(=O)C(F)(F)F)c1 | 200 nM | 105% | 3.7 |  |  | 1.1 10^3uL/min/mg | 28 µL/min/mg
COc1cc(F)c(O[C@H]2CC[C@@H](C(=O)O)CC2)cc1C(=O)N[C@@H]1[C@H]2CC[C@H](C2)[C@@H]1C(=O)Nc1cccc(C(F)F)c1 |  | 104% | 2.8 | 11 µL/min/1e6 cells | 51 µL/min |  | 
COc1cc(F)c(C(=O)N2CCC(C)(C(=O)O)CC2)cc1C(=O)N[C@H]1[C@@H](C(=O)Nc2cccc(S(=O)(=O)C(F)(F)F)c2)[C@@H]2C=C[C@H]1C2 (racemic) | 3160 nM | 111% | 1.9 | 3 µL/min/1e6 cells | 6.3 µL/min |  | 
COc1cc(F)c(O[C@H]2CC[C@@H](C(=O)O)CC2)cc1C(=O)N[C@@H]1[C@H]2CC[C@H](C2)[C@@H]1C(=O)Nc1ccccc1 | 7940 nM | 98% | 2.5 | 7.6 µL/min/1e6 cells | 25 µL/min |  | 
COc1cc(F)c(-c2ccc(C(=O)O)cc2)cc1C(=O)N[C@H]1[C@@H](C(=O)Nc2cccc(S(=O)(=O)C(F)(F)F)c2)[C@@H]2C=C[C@H]1C2 |  | 99% |  |  |  |  | 
COc1cc(F)c(O[C@H]2CC[C@H](C(=O)O)CC2)cc1C(=O)N[C@H]1[C@@H](C(=O)Nc2cccc(S(=O)(=O)C(F)(F)F)c2)[C@@H]2C=C[C@H]1C2 | 2000 nM | 81% | 3 | 8.4 µL/min/1e6 cells | 84 µL/min |  | 
COc1cc(F)c(O[C@H]2CC[C@@](C)(C(=O)O)CC2)cc1C(=O)N[C@@H]1COC[C@@H]1C(=O)Nc1cccc(S(=O)(=O)C(F)(F)F)c1 | 126 nM | 104% | 2.6 | 6.3 µL/min/1e6 cells | 23 µL/min |  | 
COc1cc(F)c(O[C@H]2CC[C@@H](C(=O)O)CC2)cc1C(=O)N[C@H]1[C@H](C(=O)Nc2ccc(F)c(C(F)(F)F)c2)[C@@H]2C=C[C@H]1C2 | 3980 nM | 91% | 3.5 | 10 µL/min/1e6 cells | 91 µL/min |  | 
COc1cc(F)c(O[C@H]2CC[C@@](C)(C(=O)O)CC2)cc1C(=O)N[C@@H]1[C@H]2CC[C@H](C2)[C@@H]1C(=O)Nc1cccc(S(=O)(=O)C(F)(F)F)c1 | 2 nM | 109% | 4.15 | 15 µL/min/1e6 cells | 306 µL/min |  | 
COc1cc(F)c(OCCCCC(=O)O)cc1C(=O)N[C@H]1[C@@H](C(=O)Nc2cccc(S(=O)(=O)C(F)(F)F)c2)[C@@H]2C=C[C@H]1C2 (racemic) | 251 nM | 119% | 2.9 | 16 µL/min/1e6 cells | 89 µL/min |  | 
COc1cc(F)c(O[C@H]2CC[C@](C)(C(=O)O)CC2)cc1C(=O)N[C@@H]1[C@H]2CC[C@H](C2)[C@@H]1C(=O)Nc1cccc(S(=O)(=O)C(F)(F)F)c1 | 100 nM | 103% | 4.2 | 10 µL/min/1e6 cells | 222 µL/min |  | 
COc1cc(F)c(O[C@H]2CC[C@@H](C(=O)O)CC2)cc1C(=O)N[C@H]1[C@@H](C(=O)Nc2cccc(S(=O)(=O)C(F)(F)F)c2)[C@@H]2C=C[C@H]1C2 | 63.1 nM | 109% | 3.25 | 11 µL/min/1e6 cells | 100 µL/min |  | 
